Three molecules from US20100286219A1, “1, 3-Dihydroimidazoles for Treating Cardiovascular Disorders” (BIAL - PORTELA & CA S.A., priority 2007, published 2010) can be followed below.

One data set has as its target T1, human DβH (Homo sapiens, UniProt P09172).
T1 construct: endogenous in cells; host or cells: SK-N-SH cells
T1 sequence (P09172 1-617): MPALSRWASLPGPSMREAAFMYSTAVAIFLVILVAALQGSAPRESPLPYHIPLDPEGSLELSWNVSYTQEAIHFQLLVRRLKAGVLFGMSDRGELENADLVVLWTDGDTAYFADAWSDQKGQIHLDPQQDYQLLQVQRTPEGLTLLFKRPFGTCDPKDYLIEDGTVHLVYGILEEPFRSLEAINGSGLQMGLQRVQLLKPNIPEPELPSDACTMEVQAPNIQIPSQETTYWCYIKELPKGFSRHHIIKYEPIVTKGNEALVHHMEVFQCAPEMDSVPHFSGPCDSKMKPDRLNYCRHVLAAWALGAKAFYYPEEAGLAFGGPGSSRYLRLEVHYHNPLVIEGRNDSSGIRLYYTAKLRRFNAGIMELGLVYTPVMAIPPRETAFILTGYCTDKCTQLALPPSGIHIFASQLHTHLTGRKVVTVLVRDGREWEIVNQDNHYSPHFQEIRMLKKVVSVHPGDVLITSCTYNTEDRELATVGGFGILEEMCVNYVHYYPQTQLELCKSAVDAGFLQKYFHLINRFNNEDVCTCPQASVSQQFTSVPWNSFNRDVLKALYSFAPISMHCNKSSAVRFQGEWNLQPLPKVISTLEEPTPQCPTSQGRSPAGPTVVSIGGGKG
The data set can be described thus: DβH activity in SK-N-SH cells (β-hydroxylation of dopamine to noradrenaline). The class given is cell-based. The settings on record: for IC50 against human DβH activity (in words): concentration-dependent decrease in β-hydroxylation of dopamine.

Data set [1] has as its target T2, DβH (Mus musculus, UniProt Q64237).
T2 construct: noradrenaline levels in the mouse left ventricle and brain parietal cortex 9 h after oral administration; from tissue; host or cells: mouse left ventricle and brain parietal cortex (in vivo)
T2 sequence (Q64237 1-622): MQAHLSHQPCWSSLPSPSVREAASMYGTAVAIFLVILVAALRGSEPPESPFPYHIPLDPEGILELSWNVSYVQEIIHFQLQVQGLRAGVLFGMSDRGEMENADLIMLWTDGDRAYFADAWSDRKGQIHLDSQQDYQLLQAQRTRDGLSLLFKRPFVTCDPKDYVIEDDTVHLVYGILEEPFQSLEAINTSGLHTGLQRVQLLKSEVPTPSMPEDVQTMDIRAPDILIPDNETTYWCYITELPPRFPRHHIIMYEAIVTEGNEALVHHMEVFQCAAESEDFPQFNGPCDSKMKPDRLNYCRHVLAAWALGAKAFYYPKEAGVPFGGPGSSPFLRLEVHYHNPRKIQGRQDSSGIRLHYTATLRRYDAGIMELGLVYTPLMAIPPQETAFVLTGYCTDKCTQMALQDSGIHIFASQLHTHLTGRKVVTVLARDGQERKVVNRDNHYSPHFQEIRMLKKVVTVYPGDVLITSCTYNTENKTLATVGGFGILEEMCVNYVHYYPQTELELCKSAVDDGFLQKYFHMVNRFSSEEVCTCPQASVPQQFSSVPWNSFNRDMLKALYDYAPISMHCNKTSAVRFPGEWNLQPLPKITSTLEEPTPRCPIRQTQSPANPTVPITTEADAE
The data set can be described thus: Noradrenaline tissue levels in mouse heart and brain after oral administration. The class given is in vivo. The settings on record: for Time of maximum effect (Tmax) for noradrenaline tissue reduction: mouse heart (left ventricle), 100 mg/kg oral; for recovery of initial noradrenaline tissue levels / duration of action (in words): mouse heart; for recovery of initial noradrenaline tissue levels: 100 mg/kg, at 24 h; for duration of action (in words): time course at 100 mg/kg; for dose at which maximal inhibitory effect was attained: mouse left ventricle noradrenaline, 9 h after administration; for effect on noradrenaline levels in left ventricle / effect on noradrenaline tissue levels in brain parietal cortex: mouse, 9 h after oral administration. The procedure:
FIG. 1 is a graph showing the time-dependent decrease of noradrenaline levels in the left ventricle of mice treated orally with 100 mg/kg of 4 or nepicastat 1. Symbols are means of 5 determinations per group; vertical lines indicate S.E.M.
FIG. 2 is two graphs showing noradrenaline levels in the mouse left ventricle and brain parietal cortex 9 h after oral administration of 4 or nepicastat 1. Symbols are means of 5 determinations per group; vertical lines indicate S.E.M.
Time of maximum effect (Tmax) for noradrenaline tissue reduction by both 4 and 1 appears to be at 9 h post-dose (FIG. 1). Thereafter, noradrenaline tissue levels recover, reaching 50% recovery of initial tissue levels at 24 h.
For both 4 and 1, the maximal inhibitory effect was attained at a dose of 100 mg/kg.

For data set [2], the target named is T3, DβH (Rattus norvegicus, UniProt Q05754).
T3 construct: noradrenaline levels in the rat heart (left atrium and left ventricle) and brain (frontal and parietal cortex); from tissue; host or cells: rat heart (left atrium, left ventricle) and brain (frontal and parietal cortex), in vivo
T3 sequence (Q05754 1-620): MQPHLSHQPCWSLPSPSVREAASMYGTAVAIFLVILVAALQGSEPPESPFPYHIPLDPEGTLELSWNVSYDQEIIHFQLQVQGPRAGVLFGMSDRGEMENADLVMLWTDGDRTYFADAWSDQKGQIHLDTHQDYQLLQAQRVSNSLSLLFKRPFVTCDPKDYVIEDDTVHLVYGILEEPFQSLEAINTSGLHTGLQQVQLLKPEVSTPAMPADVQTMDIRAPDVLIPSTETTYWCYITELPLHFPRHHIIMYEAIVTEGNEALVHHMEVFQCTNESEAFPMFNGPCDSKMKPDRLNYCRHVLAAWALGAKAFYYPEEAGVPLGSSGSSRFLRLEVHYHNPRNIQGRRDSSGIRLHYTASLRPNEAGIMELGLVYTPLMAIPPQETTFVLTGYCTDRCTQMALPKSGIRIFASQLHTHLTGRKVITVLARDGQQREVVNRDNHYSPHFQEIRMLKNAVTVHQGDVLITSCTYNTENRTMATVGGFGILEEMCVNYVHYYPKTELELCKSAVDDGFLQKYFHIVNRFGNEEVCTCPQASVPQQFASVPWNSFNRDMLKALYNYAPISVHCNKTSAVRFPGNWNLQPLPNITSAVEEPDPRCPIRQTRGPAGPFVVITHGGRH
Nature of the data set: Noradrenaline tissue levels in rat heart and brain after oral administration. The class given is in vivo. The following applies: for dose dependence of effect upon noradrenaline / time of maximum effect upon noradrenaline: rat (data not shown); for effect on noradrenaline tissue levels in brain parietal cortex and brain frontal cortex: 9 h after oral administration. The procedure: FIG. 3 is four graphs showing noradrenaline levels in the rat heart (left atrium and left ventricle) and brain (frontal and parietal cortex) 9 h after the oral administration of 4 or nepicastat 1. Columns are means of 5 determinations per group; vertical lines indicated S.E.M.

Substrate in data set [3]: NCCc1ccc(O)c(O)c1
Nature of the data set: cells, lysate or membranes. The following applies: other: SK-N-SH cells, increasing concentrations of dopamine.

Take `Cl.NCCc1c[nH]c(=S)n1[C@H]1COc2c(F)cc(F)cc2C1` [Compound 4, (R)-5-(2-aminoethyl)-1-(6,8-difluorochroman-3-yl)-1,3-dihydroimidazole-2-thione hydrochloride]: the “inhibition of DβH activity (in words)” value on human DβH (as listed in Table 1, 5 μM) is “markedly inhibit”. Moreover, the “IC50 against human DβH activity (in words)” value on human DβH is “low nM range”. At DβH [1], the “Time of maximum effect (Tmax) for noradrenaline tissue reduction” value is 9 h, the “recovery of initial noradrenaline tissue levels” value was found to be 50%, the “duration of action (in words)” value was “long acting” and the “dose at which maximal inhibitory effect was attained” value is 100 mg/kg. For the same molecule, on DβH [1], the “effect on noradrenaline levels in left ventricle” value was “reduced noradrenaline levels in a dose-dependent manner” and the “effect on noradrenaline tissue levels in brain parietal cortex” value is “failed to affect”. For the same molecule, at DβH [2] (concluded from mouse and rat studies), the “site of DβH inhibition, periphery versus brain (conclusion)” value is recorded as “exclusively in the periphery, being devoid of inhibitory effects in the brain”. In addition, on DβH [2], the “dose dependence of effect upon noradrenaline” value is listed as “dependent on the dose administered” and the “time of maximum effect upon noradrenaline” value is given as 9 h. The “inhibitory effect upon noradrenaline levels in left atrium and left ventricle” value on DβH [2] (rat, 100 mg/kg oral, 9 h, compared with 1 (100 mg/kg)) is “more pronounced than those elicited by 1”. Further, at DβH [2] (rat), the “effect on noradrenaline tissue levels in brain parietal cortex and brain frontal cortex” value is “failed to affect”.

As for `NCc1c[nH]c(=S)n1[C@H]1CCc2c(F)cc(F)cc2C1` [Nepicastat 1, nepicastat, reference compound], the “DβH activity, Mean ± SEM, % of control” value on human DβH (compound 5 μM) is given as 0.0 ± 0.3 % of control. In addition, on human DβH, the “IC50 against human DβH activity (in words)” value was “low nM range”. Further, at DβH [1], the “Time of maximum effect (Tmax) for noradrenaline tissue reduction” value is listed as 9 h, the “recovery of initial noradrenaline tissue levels” value is listed as 50%, the “duration of action (in words)” value is “long acting” and the “dose at which maximal inhibitory effect was attained” value is on record as 100 mg/kg. On DβH [1], the “effect on noradrenaline levels in left ventricle” value is “reduced noradrenaline levels in a dose-dependent manner” and the “effect on noradrenaline tissue levels in brain parietal cortex” value is “produced a dose-dependent decrease”. Also, at DβH [2], the “dose dependence of effect upon noradrenaline” value is given as “dependent on the dose administered” and the “time of maximum effect upon noradrenaline” value came to 9 h. Moreover, the “effect on noradrenaline tissue levels in brain parietal cortex and brain frontal cortex” value at DβH [2] (rat) is reported as “produced a marked decrease”.

B1: human DβH (Homo sapiens) (protein)
chain: T1 sequence (P09172 1-617)
As to B1, in data set [3], the Km (usually the substrate concentration at which the rate is half of its maximum) was 20.6 ± 1.6 µM and the Vmax was determined as 153.8±4.4 nmol mg protein-1 h-1.
